Literature values, collected in patent US20100221326A1, “PHARMACEUTICAL COMPOSITIONS FOR ORAL USE FOR TREATING PATIENTS AFFECTED BY OBESITY” (MADER S.R.L., priority 2007, published 2010).

Settings: raw material

CCCCCCCCCCC[C@@H](C[C@@H]1OC(=O)[C@H]1CCCCCC)OC(=O)[C@H](CC(C)C)NC=O [Orlistat]
degradation of the active principle (25° C., 65% RH, after 7 days' storage): 15% | degradation (40° C., RH 75%): greater than 40%
